Results on 5 molecules are retold here after article PMC6543015, “Exploring the overlapping binding sites of ifenprodil and EVT‐101 in GluN2B‐containing NMDA receptors using novel chicken embryo forebrain cultures and molecular modeling” (Pharmacology Research & Perspectives, 2019).

Each structure is given as a SMILES string. Like-named read-outs stand apart in the source and are kept apart here.

The target of assay [1] is native GluN2B‐containing NMDA receptors (Gallus gallus, UniProt F1NMB0+Q4KXT1). Nature of the assay: Calcium influx measurement (Fura-2) in E10 chicken embryo forebrain cell culture at DIV1, induced with NMDA and glycine. It counts as cell-based, chicken (Gallus gallus). The following applies: for EC50: primary cultures from chicken embryo forebrain (E10), read-out: EC50, inhibition of calcium influx; for Emax: read-out: calcium influx blocked. The protocol: The eggs were submerged in crushed ice for 7 minutes to anesthetize the embryos before decapitation. The forebrain was surgically removed, and the meninges were discarded. The tissue was homogenized by chopping with a scalpel before trypsination in buffered solutions as previously described.30, 31 Cells were suspended in DMEM supplemented with 1% N‐2, 100 U/mL penicillin and 0.1 mg/mL streptomycin (Pen‐Strep), 10% fetal bovine serum (FBS), and 0.75% GlutaMAX™. Cells were seeded (1.7 × 10^6 cells/mL) on 35 mm Petri dishes or in 96‐well plates (Corning® CellBIND® 96 well plates; Merck) precoated with poly‐L‐lysine, and incubated at 37°C, with 5% CO2. These cultures contain an abundance of functional GluN2B receptors on DIV1 (A. Ring, pers. commun.).
native GluN2B‐containing NMDA receptors, sequence (F1NMB0 entry or part of it, other chains not shown): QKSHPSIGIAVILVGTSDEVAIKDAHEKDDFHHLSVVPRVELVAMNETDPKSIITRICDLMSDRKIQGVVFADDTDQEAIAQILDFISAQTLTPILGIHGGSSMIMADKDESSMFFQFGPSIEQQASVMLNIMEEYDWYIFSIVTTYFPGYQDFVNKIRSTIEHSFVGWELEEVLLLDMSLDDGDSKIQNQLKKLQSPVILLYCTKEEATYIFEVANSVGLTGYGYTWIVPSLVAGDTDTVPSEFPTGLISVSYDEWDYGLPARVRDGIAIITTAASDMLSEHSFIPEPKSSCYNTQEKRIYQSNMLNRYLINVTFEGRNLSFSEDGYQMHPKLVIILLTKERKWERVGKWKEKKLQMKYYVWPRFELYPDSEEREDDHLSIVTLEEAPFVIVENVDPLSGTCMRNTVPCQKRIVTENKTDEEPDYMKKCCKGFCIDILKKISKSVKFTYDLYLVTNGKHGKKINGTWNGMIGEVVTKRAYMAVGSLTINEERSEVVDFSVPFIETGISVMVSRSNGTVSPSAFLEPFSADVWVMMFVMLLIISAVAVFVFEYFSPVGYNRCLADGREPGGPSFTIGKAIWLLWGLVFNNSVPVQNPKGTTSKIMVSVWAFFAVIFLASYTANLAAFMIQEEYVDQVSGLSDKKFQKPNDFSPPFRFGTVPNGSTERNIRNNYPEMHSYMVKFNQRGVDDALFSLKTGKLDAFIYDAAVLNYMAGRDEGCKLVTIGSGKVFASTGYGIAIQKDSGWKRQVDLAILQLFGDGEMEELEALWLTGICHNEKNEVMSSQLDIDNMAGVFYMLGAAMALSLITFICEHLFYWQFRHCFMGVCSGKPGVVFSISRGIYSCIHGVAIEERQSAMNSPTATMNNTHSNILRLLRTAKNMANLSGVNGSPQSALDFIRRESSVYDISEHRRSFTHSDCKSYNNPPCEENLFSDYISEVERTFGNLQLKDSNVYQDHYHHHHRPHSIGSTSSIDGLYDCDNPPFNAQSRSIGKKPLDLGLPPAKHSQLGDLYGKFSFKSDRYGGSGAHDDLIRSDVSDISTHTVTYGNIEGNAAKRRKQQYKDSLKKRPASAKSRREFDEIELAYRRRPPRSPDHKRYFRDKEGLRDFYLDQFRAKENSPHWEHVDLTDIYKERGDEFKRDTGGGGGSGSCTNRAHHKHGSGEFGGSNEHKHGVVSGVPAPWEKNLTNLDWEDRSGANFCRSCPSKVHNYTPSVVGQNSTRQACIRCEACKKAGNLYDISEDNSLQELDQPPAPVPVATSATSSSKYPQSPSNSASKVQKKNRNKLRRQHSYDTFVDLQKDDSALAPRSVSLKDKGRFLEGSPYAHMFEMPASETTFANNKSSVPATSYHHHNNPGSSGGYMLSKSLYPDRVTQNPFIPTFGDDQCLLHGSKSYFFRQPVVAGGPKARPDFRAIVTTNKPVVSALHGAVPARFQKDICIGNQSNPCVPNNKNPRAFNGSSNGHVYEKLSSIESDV
Fura‐2 fluorescence was measured using CLARIOstar® plate reader (BMG Labtech, Germany). Intracellular Ca^2+ changes were expressed as changes in 340/380 nm fluorescence emission ratio. The wash buffer was then carefully replaced with test compound (20 nmol/L to 10 μmol/L) in standard buffer (n = 4 per concentration, two compounds per 96‐well plate). NMDA receptor‐mediated Ca^2+ influx was induced by NMDA (0.2 mmol/L) and glycine (0.1 mmol/L) in each well. The resulting rise in intracellular Ca^2+ was expressed as a change in the 340/380 emission ratio by subtracting the initial Ca^2+ level from the NMDA stimulated Ca^2+ responses. […] Inhibition curves for each compound were established by dose response experiments (n ≥ 5). For Ro 04‐5595, four representative IC50 values were chosen to make Figure 2A, while 13 experiments around the median were chosen for Figure 2C.

Assay [2] addresses recombinant GluN1/GluN2B receptors. The following applies: recombinant GluN1/GluN2B in X. laevis oocytes, electrophysiology; cited from earlier work.
For assay [3] the target is unchanged. More on the design: method as in PMID 22197913. The following applies: recombinant GluN1/GluN2B in X. laevis oocytes, electrophysiology; cited from earlier work.
The mark [4] stands for this setting: E10 chicken forebrain cell culture at DIV 1, NMDA 200 and glycine 100 μmol/L, Fura-2, read-out: IC50 Chicken (present work).
Where [5] appears, read: maximal block by GluN2B-specific allosteric antagonists, chicken forebrain culture.

Usually IC50 stands for the concentration needed to halve the response being measured. What is called EC50 is the concentration needed to bring the measured effect to its halfway point. For `Cc1nccn1Cc1cc(-c2ccc(F)c(C(F)F)c2)cnn1.Cl.Cl` [EVT‐101], the IC50 in assay [1] (setting [4]) is 22 ± 8 nM; in assay [2], 12 ± 0.2 nM. In assay [1] (setting [5]), the calcium influx blocked entry is reported as “approximately 70%”. Besides, in assay [1], the EC50 is 22 ± 8 nM.
Take `OC(CN1CCC(Cc2ccc(F)cc2)CC1)c1ccc(Cl)cc1` (stereo not shown) [Eliprodil, eliprodil]: the half-inhibitory concentration (IC50) in assay [1] (setting [4]) is 1260 ± 683 nM; in assay [3], 930 ± 140 nM; in assay [2], 780 ± 90 nM. For the same molecule, the Emax in assay [1] (setting [5]) was ~70%. Besides, the concentration giving a half-maximal response (EC50) in assay [1] came out at 1300 ± 700 nM.
`CC(C(O)c1ccc(O)cc1)N1CCC(Cc2ccccc2)CC1` (stereo not shown) [Ifenprodil, ifenprodil]: the IC50 in assay [1] (setting [4]) was 103 ± 39 nM; in assay [3], 130 ± 10 nM; in assay [2], 110 ± 10 nM. In addition, the concentration giving a half-maximal response (EC50) in assay [1] came out at 100 ± 40 nM. Moreover, in assay [1], the Emax was ~70%.
As for `COc1cc2c(cc1O)C(CCc1ccc(Cl)cc1)N(C)CC2` (stereo not shown) [Ro 04‐5595], the IC50 in assay [1] (setting [4]) is 186 ± 35 nM; in assay [1] (chicken forebrain culture calcium influx assay, read-out: IC50 value), < 200 nM. Further, the concentration for a half-maximal effect (EC50) in assay [1] turned out to be 186 ± 32 nM.
Consider `C[C@@H]([C@H](O)c1ccc(O)cc1)N1CCC(Cc2ccccc2)CC1` [Ro 25‐6981], for which the results for the IC50 in assay [1] (setting [4]), in assay [3] and in assay [2] were 60 ± 27 nM, 49 ± 8 nM and 42 ± 6 nM, respectively. Moreover, the calcium influx blocked entry in assay [1] (setting [5]) is “approximately 70%”. For the same molecule, in assay [1], the EC50 came out at 60 ± 30 nM.
